The source of these data is ChEMBL document CHEMBL2046383, “Hyrtioreticulins A-E, indole alkaloids inhibiting the ubiquitin-activating enzyme, from the marine sponge Hyrtios reticulatus” (Bioorg Med Chem, 2012).

The source made the active and inactive calls. The rule behind the calls is not given here.

The target of test [1] is T1, Ubiquitin-like modifier-activating enzyme 1 (Homo sapiens) (UniProt P22314).
T1 sequence (whole entry): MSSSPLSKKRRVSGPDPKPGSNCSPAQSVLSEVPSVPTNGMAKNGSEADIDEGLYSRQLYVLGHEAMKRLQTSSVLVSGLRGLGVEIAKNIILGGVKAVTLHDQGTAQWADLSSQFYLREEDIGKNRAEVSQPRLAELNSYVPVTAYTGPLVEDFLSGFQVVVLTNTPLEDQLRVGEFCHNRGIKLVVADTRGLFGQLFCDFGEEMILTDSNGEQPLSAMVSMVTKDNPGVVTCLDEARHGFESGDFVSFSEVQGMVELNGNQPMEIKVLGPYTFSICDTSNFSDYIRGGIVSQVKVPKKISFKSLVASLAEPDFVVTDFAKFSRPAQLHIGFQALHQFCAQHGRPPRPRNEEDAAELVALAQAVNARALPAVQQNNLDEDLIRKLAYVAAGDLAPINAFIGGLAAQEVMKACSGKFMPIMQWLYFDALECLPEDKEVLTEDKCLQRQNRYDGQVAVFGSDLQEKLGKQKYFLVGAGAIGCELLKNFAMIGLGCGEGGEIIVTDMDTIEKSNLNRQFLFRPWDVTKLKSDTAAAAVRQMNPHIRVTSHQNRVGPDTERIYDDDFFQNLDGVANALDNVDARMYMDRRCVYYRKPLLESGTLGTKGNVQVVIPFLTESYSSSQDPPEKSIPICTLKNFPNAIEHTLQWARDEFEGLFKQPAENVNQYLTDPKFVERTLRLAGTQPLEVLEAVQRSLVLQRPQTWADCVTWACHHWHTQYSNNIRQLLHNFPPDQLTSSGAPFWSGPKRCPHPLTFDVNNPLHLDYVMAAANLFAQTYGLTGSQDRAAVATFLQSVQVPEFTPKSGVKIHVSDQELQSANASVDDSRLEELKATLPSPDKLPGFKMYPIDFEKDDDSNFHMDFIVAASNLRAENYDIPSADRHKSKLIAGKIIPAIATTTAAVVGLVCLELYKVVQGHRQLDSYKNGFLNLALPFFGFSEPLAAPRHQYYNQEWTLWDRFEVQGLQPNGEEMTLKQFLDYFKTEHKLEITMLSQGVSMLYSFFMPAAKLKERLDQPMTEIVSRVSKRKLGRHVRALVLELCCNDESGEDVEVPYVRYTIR
The experiment in a line: Inhibition of GST-tagged ubiquitin binding to FLAG-tagged E1 at 50 uM after 20 mins by immunoprecipitation analysis.

Test [2] has as its target T1, Ubiquitin-like modifier-activating enzyme 1 (Homo sapiens). The experiment in a line: (§1) Inhibition of FLAG-tagged ubiquitin-activating enzyme E1 assessed as inhibition of GST-ubiquitin/FLAG-E1 intermediate formation by Western blot analysis.
In a further test the test system is HeLa. The experiment in a line: Cytotoxicity against human HeLa cells at 50 ug/mL. It is filed as functional, cell-based.
The target in test [3] is T2, Ubiquitin-like modifier-activating enzyme 1 (Homo sapiens, UniProt P22314).
T2 sequence (P22314 whole entry): T1 sequence (whole entry)
The experiment in a line: Inhibition of ubiquitin-activating enzyme E1.

Test [4] deals with T2, Ubiquitin-like modifier-activating enzyme 1. The experiment in a line: Inhibition of recombinant fluorescein-tagged E1 assessed as inhibition of ubiquitin-E1 adduct formation incubated for 15 mins prior to ATP addition measured after 5 mins by SDS PAGE analysis.
The target is the same in test [5]. The description is as §1.
Test [6] has as its target T1, Ubiquitin-like modifier-activating enzyme 1 (Homo sapiens). The experiment in a line: Inhibition of FLAG-tagged ubiquitin-activating enzyme E1 assessed as inhibition of GST-ubiquitin/FLAG-E1 intermediate formation at 100 uM by Western blot analysis. (A western blot detects proteins with antibodies after separation by electrophoresis.)

As for `O=C(O)[C@@H]1Cc2c([nH]c3ccc(O)cc23)[C@@H](Cc2c[nH]cn2)N1`, the inhibition entry in test [1] is “inactive”. For the same compound, the inhibition result in test [2] is “Dose-dependent effect”. The result with HeLa was inactive.
Broadly, the IC50 is the point on the concentration scale where inhibition reaches its midpoint. `CC(C)(O)/C=C/[C@@]12[C@H]3[C@@H](O)[C@@H]4O[C@@H]4[C@]1(O)OC(C)(C)[C@H]2C=C1C(=O)[C@H]2O[C@H]2[C@H](O)[C@H]13` [PANEPOPHENANTHRINE] yielded a concentration for half-maximal inhibition (IC50) in test [3] of 40 µM.
In the case of `C[C@H]1N[C@H](C(=O)O)Cc2c[nH]c3ccc(O)c1c23`, in the test with HeLa, the result was inactive.
On to `C[C@@H](CC(=O)NC(=O)c1coc(/C=C/CCCCCCCCC(=O)O)cc1=O)C(=O)O`, for which the inhibition result in test [1] was “Active”.
Take `C[C@H]1N[C@H](C(=O)O)Cc2c1[nH]c1ccc(O)cc21`: the outcome with HeLa was inactive.
`CCCCCCCC(=O)SCC/C=C/[C@@H]1CC(=O)NCc2nc(cs2)C2=N[C@@](C)(CS2)C(=O)N[C@@H](C(C)C)C(=O)O1` [LARGAZOLE]: the half-inhibitory concentration (IC50) in test [4] is 29 µM.
On to `O=C(O)[C@@H]1Cc2c([nH]c3ccc(O)cc23)[C@H](Cc2c[nH]cn2)N1` [HYRTIORETICULIN B], for which the inhibition entry in test [1] was “inactive”. Moreover, the inhibition entry in test [2] was “Dose-dependent effect”. In test [5], the half-maximal inhibitory concentration (IC50) came to 35 µM. Further, the outcome with HeLa was inactive.
For `C[C@H]1N[C@@H](C(=O)O)Cc2c1[nH]c1ccc(O)cc21`, in test [6], the inhibition entry is “Active”. The result with HeLa was inactive.
On to `C[C@@H]1N[C@H](C(=O)O)Cc2c[nH]c3ccc(O)c1c23`, for which, in the test on HeLa, the result was inactive.
For `O=C(O)[C@@H]1Cc2c([nH]c3ccc(O)cc23)[C@@H](Cc2cnc[nH]2)N1` [HYRTIORETICULIN A], the IC50 in test [5] is 2.4 µM.
